Results as given in patent US20110218103A1, “Fluoroalkyl-substituted 2-amidobenzimidazoles” (BAYER CROPSCIENCE AG, priority 2010, published 2011).

The molecules below were run on Triticum aestivum (TRZAS) (assay: Drought stress test on crop plants, spray application in greenhouse, visual damage rating). Conditions: 250 g/ha, mean of three results.
Type: in vivo
Experimental: Seeds of monocotyledonous and dicotyledonous crop plants were placed in sandy loam in wood-fiber pots, covered with soil and cultivated in a greenhouse under good growth conditions. The test plants were treated at the early leaf stage (BBCH10-BBCH13). To ensure uniform water supply before commencement of stress, the potted plants were supplied with the maximum amount of water immediately beforehand by dam irrigation and, after application, transferred in plastic inserts in order to prevent subsequent, excessively rapid drying. The inventive compounds, formulated in the form of wettable powders (WP), wettable granules (WG), suspension concentrates (SC) or emulsion concentrates (EC), were sprayed onto the green parts of the plants as an aqueous suspension at an equivalent water application rate of 600 l/ha with addition of 0.2% wetting agent (agrotin). Substance application was followed immediately by stress treatment of the plants (cold or drought stress). For cold stress treatment, the plants were kept under the following controlled conditions: Drought stress was induced by gradual drying out under the following conditions: “day”: 14 hours with illumination at 26° C. “night”: 10 hours without illumination at 18° C. The duration of the respective stress phases was guided mainly by the state of the untreated, stressed control plants and thus varies from crop to crop. It was ended (by re-irrigating or transfer to a greenhouse with good growth conditions) as soon as irreversible damage is observed on the untreated, stressed control plants. In the case of dicotyledonous crops, for example oilseed rape and soya, the duration of the drought stress phase was between 3 and 5 days, in the case of monocotyledonous crops, for example wheat, barley or corn, between 6 and 10 days. The duration of the cold stress phase varied between 12 and 14 days. The end of the stress phase was followed by an approx. 5-7-day recovery phase, during which the plants were once again kept under good growth conditions in a greenhouse. In order to rule out any influence of the effects observed by any fungicidal action of the test compounds, it was additionally ensured that the tests proceed without fungal infection and without infection pressure. After the recovery phase had ended, the intensities of damage were rated visually compared to untreated, unstressed controls of the same age (in the case of drought stress) or the same growth stage (in the case of cold stress). The intensity of damage was first assessed as a percentage (100%=plants have died, 0%=like control plants). These values were then used to calculate the efficacy of the test compounds (=percentage reduction in the intensity of damage as a result of substance application) by the following formula: [formula] EF: efficacy (%) DVus: damage value of the untreated, stressed control DVts: damage value of the plants treated with test compound The tables below list mean values in each case from three results of the same test. Effects of selected compounds of the formula (I) under drought stress: TRZAS=Triticum aestivum

Row | SMILES | EF (TRZAS), efficacy = percentage reduction in the intensity of damage
1 | CCC(C)COC(F)(F)c1nc2c(C(N)=O)cccc2[nH]1 (centres unmarked) [1-90] | >5%
2 | CCCCOC(F)(F)c1nc2c(C(N)=O)cccc2[nH]1 [1-50] | >5%

What follows are molecules tested on Zea mays (ZEAMX) in the same assay as above. Conditions: 25 g/ha, mean of three results.
Type: in vivo
Experimental: Seeds of monocotyledonous and dicotyledonous crop plants were placed in sandy loam in wood-fiber pots, covered with soil and cultivated in a greenhouse under good growth conditions. The test plants were treated at the early leaf stage (BBCH10-BBCH13). To ensure uniform water supply before commencement of stress, the potted plants were supplied with the maximum amount of water immediately beforehand by dam irrigation and, after application, transferred in plastic inserts in order to prevent subsequent, excessively rapid drying. The inventive compounds, formulated in the form of wettable powders (WP), wettable granules (WG), suspension concentrates (SC) or emulsion concentrates (EC), were sprayed onto the green parts of the plants as an aqueous suspension at an equivalent water application rate of 600 l/ha with addition of 0.2% wetting agent (agrotin). Substance application was followed immediately by stress treatment of the plants (cold or drought stress). For cold stress treatment, the plants were kept under the following controlled conditions: Drought stress was induced by gradual drying out under the following conditions: “day”: 14 hours with illumination at 26° C. “night”: 10 hours without illumination at 18° C. The duration of the respective stress phases was guided mainly by the state of the untreated, stressed control plants and thus varies from crop to crop. It was ended (by re-irrigating or transfer to a greenhouse with good growth conditions) as soon as irreversible damage is observed on the untreated, stressed control plants. In the case of dicotyledonous crops, for example oilseed rape and soya, the duration of the drought stress phase was between 3 and 5 days, in the case of monocotyledonous crops, for example wheat, barley or corn, between 6 and 10 days. The duration of the cold stress phase varied between 12 and 14 days. The end of the stress phase was followed by an approx. 5-7-day recovery phase, during which the plants were once again kept under good growth conditions in a greenhouse. In order to rule out any influence of the effects observed by any fungicidal action of the test compounds, it was additionally ensured that the tests proceed without fungal infection and without infection pressure. After the recovery phase had ended, the intensities of damage were rated visually compared to untreated, unstressed controls of the same age (in the case of drought stress) or the same growth stage (in the case of cold stress). The intensity of damage was first assessed as a percentage (100%=plants have died, 0%=like control plants). These values were then used to calculate the efficacy of the test compounds (=percentage reduction in the intensity of damage as a result of substance application) by the following formula: [formula] EF: efficacy (%) DVus: damage value of the untreated, stressed control DVts: damage value of the plants treated with test compound The tables below list mean values in each case from three results of the same test. Effects of selected compounds of the formula (I) under drought stress: ZEAMX=Zea mays

Row | SMILES | EF (ZEAMX), efficacy = percentage reduction in the intensity of damage
3 | NC(=O)c1cccc2[nH]c(C(F)(F)OCC3CC3)nc12 [1-84] | >5%
4 | NC(=O)c1cccc2[nH]c(C(F)C(F)(F)F)nc12 (centres unmarked) [1-8] | >5%

Same assay, conditions: 250 g/ha, mean of three results

Row | SMILES | EF (ZEAMX), efficacy = percentage reduction in the intensity of damage
5 | CCC(C)COC(F)(F)c1nc2c(C(N)=O)cccc2[nH]1 (centres unmarked) [1-90] | >5%
6 | C=CCCOC(F)(F)c1nc2c(C(N)=O)cccc2[nH]1 [1-89] | >5%
7 | CCCCOC(F)(F)c1nc2c(C(N)=O)cccc2[nH]1 [1-50] | >5%

Each molecule was assayed on Brassica napus (BRSNS) in the same assay as above. Conditions: 25 g/ha, mean of three results.
Type: in vivo
Experimental: Seeds of monocotyledonous and dicotyledonous crop plants were placed in sandy loam in wood-fiber pots, covered with soil and cultivated in a greenhouse under good growth conditions. The test plants were treated at the early leaf stage (BBCH10-BBCH13). To ensure uniform water supply before commencement of stress, the potted plants were supplied with the maximum amount of water immediately beforehand by dam irrigation and, after application, transferred in plastic inserts in order to prevent subsequent, excessively rapid drying. The inventive compounds, formulated in the form of wettable powders (WP), wettable granules (WG), suspension concentrates (SC) or emulsion concentrates (EC), were sprayed onto the green parts of the plants as an aqueous suspension at an equivalent water application rate of 600 l/ha with addition of 0.2% wetting agent (agrotin). Substance application was followed immediately by stress treatment of the plants (cold or drought stress). For cold stress treatment, the plants were kept under the following controlled conditions: Drought stress was induced by gradual drying out under the following conditions: “day”: 14 hours with illumination at 26° C. “night”: 10 hours without illumination at 18° C. The duration of the respective stress phases was guided mainly by the state of the untreated, stressed control plants and thus varies from crop to crop. It was ended (by re-irrigating or transfer to a greenhouse with good growth conditions) as soon as irreversible damage is observed on the untreated, stressed control plants. In the case of dicotyledonous crops, for example oilseed rape and soya, the duration of the drought stress phase was between 3 and 5 days, in the case of monocotyledonous crops, for example wheat, barley or corn, between 6 and 10 days. The duration of the cold stress phase varied between 12 and 14 days. The end of the stress phase was followed by an approx. 5-7-day recovery phase, during which the plants were once again kept under good growth conditions in a greenhouse. In order to rule out any influence of the effects observed by any fungicidal action of the test compounds, it was additionally ensured that the tests proceed without fungal infection and without infection pressure. After the recovery phase had ended, the intensities of damage were rated visually compared to untreated, unstressed controls of the same age (in the case of drought stress) or the same growth stage (in the case of cold stress). The intensity of damage was first assessed as a percentage (100%=plants have died, 0%=like control plants). These values were then used to calculate the efficacy of the test compounds (=percentage reduction in the intensity of damage as a result of substance application) by the following formula: [formula] EF: efficacy (%) DVus: damage value of the untreated, stressed control DVts: damage value of the plants treated with test compound The tables below list mean values in each case from three results of the same test. Effects of selected compounds of the formula (I) under drought stress: BRSNS=Brassica napus

Row | SMILES | EF (BRSNS), efficacy = percentage reduction in the intensity of damage
8 | CCCCOC(F)(F)c1nc2c(C(N)=O)cccc2[nH]1 [1-50] | >5%

Same assay, conditions: 50 g/ha, mean of three results

Row | SMILES | EF (BRSNS), efficacy = percentage reduction in the intensity of damage
9 | NC(=O)c1cccc2[nH]c(C(F)C(F)(F)F)nc12 (centres unmarked) [1-8] | >5%

Same assay, conditions: 250 g/ha, mean of three results

Row | SMILES | EF (BRSNS), efficacy = percentage reduction in the intensity of damage
10 | C=CCCOC(F)(F)c1nc2c(C(N)=O)cccc2[nH]1 [1-89] | >5%

What follows are molecules tested on Hordeum vulgare (HORVS) in the same assay as above. Conditions: 25 g/ha, mean of three results.
Type: in vivo
Experimental: Seeds of monocotyledonous and dicotyledonous crop plants were placed in sandy loam in wood-fiber pots, covered with soil and cultivated in a greenhouse under good growth conditions. The test plants were treated at the early leaf stage (BBCH10-BBCH13). To ensure uniform water supply before commencement of stress, the potted plants were supplied with the maximum amount of water immediately beforehand by dam irrigation and, after application, transferred in plastic inserts in order to prevent subsequent, excessively rapid drying. The inventive compounds, formulated in the form of wettable powders (WP), wettable granules (WG), suspension concentrates (SC) or emulsion concentrates (EC), were sprayed onto the green parts of the plants as an aqueous suspension at an equivalent water application rate of 600 l/ha with addition of 0.2% wetting agent (agrotin). Substance application was followed immediately by stress treatment of the plants (cold or drought stress). For cold stress treatment, the plants were kept under the following controlled conditions: Drought stress was induced by gradual drying out under the following conditions: “day”: 14 hours with illumination at 26° C. “night”: 10 hours without illumination at 18° C. The duration of the respective stress phases was guided mainly by the state of the untreated, stressed control plants and thus varies from crop to crop. It was ended (by re-irrigating or transfer to a greenhouse with good growth conditions) as soon as irreversible damage is observed on the untreated, stressed control plants. In the case of dicotyledonous crops, for example oilseed rape and soya, the duration of the drought stress phase was between 3 and 5 days, in the case of monocotyledonous crops, for example wheat, barley or corn, between 6 and 10 days. The duration of the cold stress phase varied between 12 and 14 days. The end of the stress phase was followed by an approx. 5-7-day recovery phase, during which the plants were once again kept under good growth conditions in a greenhouse. In order to rule out any influence of the effects observed by any fungicidal action of the test compounds, it was additionally ensured that the tests proceed without fungal infection and without infection pressure. After the recovery phase had ended, the intensities of damage were rated visually compared to untreated, unstressed controls of the same age (in the case of drought stress) or the same growth stage (in the case of cold stress). The intensity of damage was first assessed as a percentage (100%=plants have died, 0%=like control plants). These values were then used to calculate the efficacy of the test compounds (=percentage reduction in the intensity of damage as a result of substance application) by the following formula: [formula] EF: efficacy (%) DVus: damage value of the untreated, stressed control DVts: damage value of the plants treated with test compound The tables below list mean values in each case from three results of the same test. Effects of selected compounds of the formula (I) under drought stress: HORVS=Hordeum vulgare

Row | SMILES | EF (HORVS), efficacy = percentage reduction in the intensity of damage
11 | CC(C)NC(=O)c1cccc2[nH]c(C(F)(F)F)nc12 [1-21] | >5%

Same assay, conditions: 50 g/ha, mean of three results

Row | SMILES | EF (HORVS), efficacy = percentage reduction in the intensity of damage
12 | NC(=O)c1cccc2[nH]c(C(F)C(F)(F)F)nc12 (centres unmarked) [1-8] | >5%

Same assay, conditions: 100 g/ha, mean of three results

Row | SMILES | EF (HORVS), efficacy = percentage reduction in the intensity of damage
13 | Cn1c(C(F)(F)F)nc2c(C(N)=O)cccc21 [1-27] | >5%
14 | NC(=O)c1cccc2[nH]c(C(F)(F)Cl)nc12 [1-1, 2-[chloro(difluoro)methyl]-1H-benzimidazole-4-carboxamide] | >5%
